Measurements from the NIST ThermoML archive (doi:10.1021/je700321s).

Assay: xn = mol fraction of the nth substance listed
Details: Liquid, Vibrating tube method

CC(C)O [propan-2-ol] + O=C=O
Details	mass density [kg/m3]
323.05 K, 7910 kPa, x2 = 0.6086	781.7
323.05 K, 8002 kPa, x2 = 0.139	777.6
323.05 K, 8009 kPa, x2 = 0.6086	782.2
323.05 K, 8208 kPa, x2 = 0.6086	783.1
323.05 K, 8404 kPa, x2 = 0.6086	784.1
323.05 K, 8527 kPa, x2 = 0.139	778.3
323.05 K, 8528 kPa, x2 = 0.9715	303.9
323.05 K, 8607 kPa, x2 = 0.6086	785
323.05 K, 8800 kPa, x2 = 0.6086	785.8
323.05 K, 9004 kPa, x2 = 0.6086	786.7
323.05 K, 9031 kPa, x2 = 0.9715	381.9
323.05 K, 9033 kPa, x2 = 0.139	778.8
323.05 K, 9107 kPa, x2 = 0.9492	526.2
323.05 K, 9301 kPa, x2 = 0.6086	788
323.05 K, 9400 kPa, x2 = 0.9492	575.3
323.05 K, 9501 kPa, x2 = 0.6086	788.9
323.05 K, 9519 kPa, x2 = 0.139	779.4
323.05 K, 9535 kPa, x2 = 0.9715	467.3
323.05 K, 9702 kPa, x2 = 0.6086	789.8
323.05 K, 9710 kPa, x2 = 0.9492	607
323.05 K, 9805 kPa, x2 = 0.6086	790.2
323.05 K, 10015 kPa, x2 = 0.9492	628.2
323.05 K, 10046 kPa, x2 = 0.9715	540
323.05 K, 10301 kPa, x2 = 0.9492	644.3
323.05 K, 10501 kPa, x2 = 0.9715	577.6
323.05 K, 10600 kPa, x2 = 0.9492	658.2
323.05 K, 10904 kPa, x2 = 0.9492	670.3
323.05 K, 11011 kPa, x2 = 0.9715	612.9
323.05 K, 11211 kPa, x2 = 0.9492	681.1
323.05 K, 11508 kPa, x2 = 0.9492	689.9
323.05 K, 11512 kPa, x2 = 0.9715	638.9
323.05 K, 11807 kPa, x2 = 0.9492	698.3
323.05 K, 12028 kPa, x2 = 0.9715	660.4
323.05 K, 12106 kPa, x2 = 0.9492	705.9
323.05 K, 12404 kPa, x2 = 0.9492	712.6
323.05 K, 12516 kPa, x2 = 0.9715	677
323.05 K, 12703 kPa, x2 = 0.9492	719.2
323.05 K, 13006 kPa, x2 = 0.9492	725.5
323.05 K, 13014 kPa, x2 = 0.9715	691.5
323.05 K, 13309 kPa, x2 = 0.9492	731.4
323.05 K, 13558 kPa, x2 = 0.9715	705.3
323.05 K, 13608 kPa, x2 = 0.9492	736.7
323.05 K, 13907 kPa, x2 = 0.9492	742
323.05 K, 14003 kPa, x2 = 0.9715	715.4
323.05 K, 14210 kPa, x2 = 0.9492	746.8
323.05 K, 14504 kPa, x2 = 0.9492	751.1
323.05 K, 14516 kPa, x2 = 0.9715	725.9
323.05 K, 14804 kPa, x2 = 0.9492	755.1
323.05 K, 15024 kPa, x2 = 0.9715	735.4
323.05 K, 15506 kPa, x2 = 0.9715	743.6
323.06 K, 8724 kPa, x2 = 0.7943	745.3
323.06 K, 8802 kPa, x2 = 0.7943	746.6
323.06 K, 8905 kPa, x2 = 0.7943	747.9
323.06 K, 9005 kPa, x2 = 0.7943	749.2
323.06 K, 9204 kPa, x2 = 0.7943	751.6
323.06 K, 9410 kPa, x2 = 0.7943	753.9
323.06 K, 9606 kPa, x2 = 0.7943	756.2
323.06 K, 9792 kPa, x2 = 0.7943	758.2
323.06 K, 10001 kPa, x2 = 0.7943	760.2
323.06 K, 10310 kPa, x2 = 0.7943	763.1
323.07 K, 4004 kPa, x2 = 0.2003	775.4
323.07 K, 4307 kPa, x2 = 0.2003	775.8
323.07 K, 4497 kPa, x2 = 0.2003	776.1
323.07 K, 4802 kPa, x2 = 0.2003	776.6
323.07 K, 5014 kPa, x2 = 0.2003	776.9
323.07 K, 5510 kPa, x2 = 0.2003	777.5
323.07 K, 6029 kPa, x2 = 0.2003	778.3
323.07 K, 6513 kPa, x2 = 0.2003	779
323.07 K, 7000 kPa, x2 = 0.2003	779.7
323.07 K, 7519 kPa, x2 = 0.2003	780.5
323.07 K, 8013 kPa, x2 = 0.2003	781.1
323.07 K, 8543 kPa, x2 = 0.2003	781.8
323.07 K, 9139 kPa, x2 = 0.2003	782.5
323.07 K, 9497 kPa, x2 = 0.2003	783
323.07 K, 10068 kPa, x2 = 0.2003	783.8
332.97 K, 9739 kPa, x2 = 0.7943	686.8
332.97 K, 9804 kPa, x2 = 0.7943	689.2
332.97 K, 9901 kPa, x2 = 0.7943	691.4
332.97 K, 10001 kPa, x2 = 0.7943	693.5
332.97 K, 10101 kPa, x2 = 0.7943	695.6
332.97 K, 10201 kPa, x2 = 0.7943	697.8
332.97 K, 10302 kPa, x2 = 0.7943	699.9
332.97 K, 10404 kPa, x2 = 0.7943	701.7
332.97 K, 10507 kPa, x2 = 0.7943	703.7
332.97 K, 10606 kPa, x2 = 0.7943	705.4
332.97 K, 10808 kPa, x2 = 0.7943	708.9
332.97 K, 11007 kPa, x2 = 0.7943	712
332.97 K, 11204 kPa, x2 = 0.7943	715
332.97 K, 11404 kPa, x2 = 0.7943	717.8
332.97 K, 11607 kPa, x2 = 0.7943	720.5
332.97 K, 11805 kPa, x2 = 0.7943	722.9
332.97 K, 12004 kPa, x2 = 0.7943	725.3
332.99 K, 2861 kPa, x2 = 0.139	759.8
332.99 K, 3000 kPa, x2 = 0.139	760
332.99 K, 3297 kPa, x2 = 0.139	760.4
332.99 K, 3495 kPa, x2 = 0.139	760.7
332.99 K, 4008 kPa, x2 = 0.139	761.5
332.99 K, 4509 kPa, x2 = 0.139	762.2
332.99 K, 5030 kPa, x2 = 0.139	762.8
332.99 K, 6502 kPa, x2 = 0.139	764.9
332.99 K, 7005 kPa, x2 = 0.139	765.6
332.99 K, 7501 kPa, x2 = 0.139	766.3
332.99 K, 8010 kPa, x2 = 0.139	766.9
332.99 K, 8521 kPa, x2 = 0.139	767.6
332.99 K, 9040 kPa, x2 = 0.139	768.3
332.99 K, 9511 kPa, x2 = 0.139	768.8
332.99 K, 9974 kPa, x2 = 0.139	769.5
332.99 K, 10561 kPa, x2 = 0.9492	502.4
332.99 K, 10601 kPa, x2 = 0.9492	506.6
332.99 K, 10709 kPa, x2 = 0.9492	517.4
332.99 K, 10810 kPa, x2 = 0.9492	526.9
332.99 K, 10910 kPa, x2 = 0.9492	536.2
332.99 K, 11209 kPa, x2 = 0.9492	560.9
332.99 K, 11503 kPa, x2 = 0.9492	580
332.99 K, 11803 kPa, x2 = 0.9492	596
332.99 K, 12102 kPa, x2 = 0.9492	611.4
332.99 K, 12404 kPa, x2 = 0.9492	624.7
332.99 K, 12705 kPa, x2 = 0.9492	635.9
332.99 K, 13010 kPa, x2 = 0.9492	645.6
332.99 K, 13302 kPa, x2 = 0.9492	654.5
332.99 K, 13603 kPa, x2 = 0.9492	663.6
332.99 K, 13906 kPa, x2 = 0.9492	671.7
332.99 K, 14213 kPa, x2 = 0.9492	678.9
332.99 K, 14513 kPa, x2 = 0.9492	684.7
333.02 K, 7301 kPa, x2 = 0.4248	770.1
333.02 K, 7408 kPa, x2 = 0.4248	770.5
333.02 K, 7506 kPa, x2 = 0.4248	770.6
333.02 K, 7613 kPa, x2 = 0.4248	771
333.02 K, 7806 kPa, x2 = 0.4248	771.4
333.02 K, 8005 kPa, x2 = 0.4248	772
333.02 K, 8209 kPa, x2 = 0.4248	772.6
333.02 K, 8226 kPa, x2 = 0.6086	753.6
